Test results published in patent US20080214622A1, “Substituted Triazole Derivatives As Oxytocin Antagonists” (priority 2005, published 2008).

biological target: T1, Oxytocin Receptor (Homo sapiens, UniProt P30559); assay: Oxytocin Receptor Beta-lactamase assay (as detailed in WO 2004/020414); format: cell-based; conditions: read-out: Ki value (Oxytocin antagonist activity)
T1 sequence (P30559 1-389): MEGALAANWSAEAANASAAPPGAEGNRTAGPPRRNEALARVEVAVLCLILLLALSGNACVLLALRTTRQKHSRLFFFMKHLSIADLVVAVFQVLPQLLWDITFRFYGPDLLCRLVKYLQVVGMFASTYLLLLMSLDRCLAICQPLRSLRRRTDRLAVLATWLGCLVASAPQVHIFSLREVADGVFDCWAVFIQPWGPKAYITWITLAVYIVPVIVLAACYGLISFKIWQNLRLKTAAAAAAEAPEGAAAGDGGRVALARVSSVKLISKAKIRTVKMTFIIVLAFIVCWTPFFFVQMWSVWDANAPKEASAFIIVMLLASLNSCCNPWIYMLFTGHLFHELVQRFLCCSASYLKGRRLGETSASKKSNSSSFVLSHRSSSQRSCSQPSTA
Excerpt: A suitable assay for determining the Oxytocin antagonist activity of a compound is detailed in International Patent Application WO 2004/020414.

Ki [nM]	SMILES
13.8	COCCOc1nc(OC)ccc1-n1c(C)nnc1-c1ccc(-c2ccccc2OC)cc1 [Example 32, 6-Methoxy-3-[3-(2′-methoxybiphenyl-4-yl)-5-methyl-4H-1,2,4-triazol-4-yl]-2-(2-methoxyethoxy)pyridine]
14.6	COc1ccc(-n2c(C)nnc2-c2ccc(-c3ccccc3OC)cc2OC)cc1 [Example 10, 3-(2′,3-Dimethoxybiphenyl-4-yl)-4-(4-methoxyphenyl)-5-methyl-4H-1,2,4-triazole]
11.2	COc1ccc(-n2c(C)nnc2-c2ccc(-c3ccccc3OC)cc2)c(OCCN2CCOCC2)n1 [Example 2, 4-[2-({6-Methoxy-3-[3-(2′-methoxybiphenyl-4-yl)-5-methyl-4H-1,2,4-triazol-4-yl]pyridin-2-yl}oxy)ethyl]morpholine]
11.7	COc1ccc(-n2c(Cn3nccn3)nnc2-c2ccc(-c3ccccc3OC)cc2)cc1 [Example 25]
